Laboratory results from US20170316147A1, “METHODS AND SYSTEMS FOR IDENTIFYING LIGAND-PROTEIN BINDING SITES” (King Abdullah University of Science and Technology, priority 2014, published 2017).
“Also recorded” adds a separate entry of the source. No end group written: not given here.

Legend:
Bcl-2 [1] = molecular target: T1, Bcl-2 (Homo sapiens, UniProt P10415, A37T/A38E/A42E/A43T/DEL46-86/G36R/G41E/P39A/P44E/P88R/P90T/S87E/V35N/V89E); assay: Differential static light scattering (aggregation temperature) of Bcl-2; type: binding
T1 construct: made in house
Protocol: We also tested direct binding of CoA to recombinant Bcl-2 (see supporting information file PredTargets). Bcl-2, the founding member of the Bcl-2 family of regulator proteins that regulate cell death, is an important anti-apoptotic protein and is classified as an oncogene. Using differential static light scattering (DSLS) we observed that the aggregation temperature Tagg for 0.5 mg/ml apo-Bcl-2 was ˜57° C. […] The predicted CoA binding pocket by iDTP was adjacent to the Bax-BH binding site and without significant overlap (FIG. 5(b)). The presence of CoA was therefore not expected to displace bound Bax-BH3. […] Thus, our in vitro binding experiments strongly supported our computational binding predictions.
DSLS measured by the Stargazer system (Harbinger Biotechnology and Engineering Corporation, Markham, Canada) was used to assess the thermal stability of Bcl-2 in the absence or presence of CoA and control ligands. DSLS measures the specific aggregation temperature, Tagg at which a protein aggregates as a result of heat denaturing. Thus, DSLS provides the thermal stability of proteins, which is expected to vary in presence of ligands. Bcl-2 at 0.5 mg/mL was overlaid with mineral oil in a clear bottom 384-well black plate (Corning) were heated from 20 to 85° C. at 1° C./min and the light scattering was detected by a CCD camera every 0.5° C. in the absence or presence of varying concentrations of CoA, yielding the difference in aggregation temperature at a particular CoA concentration from apo Bc1-2 ΔTagg. Data were normalized and Kd values were calculated by plotting ΔTagg against the CoA concentration. Resulting data were fitted using a binding saturation single site model (GraphPad).
Differential static light scattering (DSLS). DSLS measured by the Stargazer system (Harbinger Biotechnology and Engineering Corporation, Markham, Canada) was used to assess the thermal stability of Bcl-2 in the presence or absence of CoA and to control ligands. DSLS measures the specific aggregation temperature, Tagg, at which a protein aggregates as a result of heat denaturing. Thus, DSLS provides proteins with thermal stability, which is expected to vary in the presence of ligands. Bcl-2 at 0.5 mg/mL was overlaid with mineral oil in a clear bottom 384-well black plate (Corning), and heated from 20 to 85° C. at 1° C./min; light scattering was detected by a CCD camera every 0.5° C. in the presence or absence of varying concentrations of CoA, yielding the difference in aggregation temperature at a particular CoA concentration from apo Bcl-2 ΔTagg. Data were normalized and Kd values were calculated by plotting ΔTagg against the CoA concentration. Resulting data were fitted using a binding-saturation single-site model (GraphPad).
Target sequence in this assay (P10415 with tags, fused parts or gaps with the stated changes): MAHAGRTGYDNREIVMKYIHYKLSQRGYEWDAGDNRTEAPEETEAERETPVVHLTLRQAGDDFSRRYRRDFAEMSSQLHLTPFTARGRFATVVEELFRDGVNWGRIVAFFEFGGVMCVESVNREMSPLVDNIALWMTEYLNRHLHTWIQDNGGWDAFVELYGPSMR

Bcl-2 [2] = molecular target: T1, Bcl-2; assay: Intrinsic tryptophan fluorescence quenching binding assay
Protocol: Bcl-2 tryptophans were excited at 280 nM and the emission intensity was measured at 320 nM. 10 μM Bcl-2 was incubated with various dilutions of CoA for 10 min before measurement. The fluorescence emitted was monitored using a PheraStar fluorescence plate reader in 96-well plates. Change in tryptophan fluorescence occurs due to conformational change in the protein, when it is bound to the ligand and the difference in the fluorescence intensity was recorded and analyzed. Data were normalized, and Kd values were calculated by fitting to a Binding-Saturation single site model with GraphPad.
Intrinsic tryptophan fluorescence quenching binding assay. Bcl-2 tryptophans were excited at 280 nM and the emission intensity was measured at 320 nM. 10 μM Bcl-2 was incubated with various dilutions of CoA for 10 min before measurement. Emitted fluorescence was monitored using a PheraStar fluorescence plate reader in 96-well plates. Change in tryptophan fluorescence occurs due to conformational changes in the protein when it is bound to the ligand; differences in the fluorescence intensity were recorded and analyzed. Data were normalized and Kd values were calculated by fitting to a Binding-Saturation single-site model with GraphPad.
Target sequence in this assay (P10415 with tags, fused parts or gaps with the stated changes): as above

Bcl-2 [3] = molecular target: T1, Bcl-2; assay: Fluorescence anisotropy competition: CoA against Bax-BH3 bound to Bcl-2; type: binding; conditions: 20 nM Bax-BH3, 400 nM Bcl-2, CoA up to 4.7 mM; listed as CoA
Text: Fluorescence anisotropy measurements.
Target sequence in this assay (P10415 with tags, fused parts or gaps with the stated changes, one chain of several): as the sequence (P10415 with tags, fused parts or gaps with the stated changes) above

hPPARγ-LBD [4] = molecular target: T2, hPPARγ-LBD (Homo sapiens, UniProt P37231); assay: Differential scanning fluorimetry (thermal shift) on hPPARγ-LBD; type: binding; set-up: human PPARγ (amino acids Glu196-Tyr477); made in house; conditions: for Tm of hPPARγ-LBD: 5 μM hPPARg
T2 sequence (P37231 196-477 isoform P37231-2): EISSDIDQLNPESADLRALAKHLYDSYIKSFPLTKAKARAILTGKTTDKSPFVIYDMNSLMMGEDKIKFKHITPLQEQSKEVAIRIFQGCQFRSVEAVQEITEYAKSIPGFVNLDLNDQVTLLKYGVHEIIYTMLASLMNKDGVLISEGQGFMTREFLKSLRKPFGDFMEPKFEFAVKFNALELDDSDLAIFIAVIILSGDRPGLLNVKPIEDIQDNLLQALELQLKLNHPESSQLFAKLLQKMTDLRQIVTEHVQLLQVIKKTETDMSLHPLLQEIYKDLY
Text: PPARγ is a nuclear hormone receptor regulating numerous biological functions including adipogenesis and cell differentiation. Its dysregulation is involved in the onset of diabetes and obesity. The interaction of the ligand binding domain (LBD) of human PPARγ (hPPARγ-LBD) with CoA is one of our most promising predictions, because this interaction achieved a high iDTP score and statistically significant co-citation index (SI Table 3). The pocket predicted by iDTP to bind CoA overlaps with the known ligand binding site of this receptor.
(§1) This method measures the protein unfolding based on fluorescence detection of the denatured form of the protein [59]. […] The plates were sealed with an optical sealing tape (Bio-Rad) and heated in an Mx3005P Q-PCR system (Stratagene) from 25 to 95° C. at 1° C. intervals. Fluorescence changes in the wells were monitored with a photomultiplier tube. The wavelengths for excitation and emission were 545 nm and 568 nm, respectively. The melting temperatures, Tm, were obtained by fitting the fluorescence data with a Boltzmann model using the GraphPad Prism software.
as §1, with “Differential scanning fluorimetry (DSF or Thermofluor). This” for “This”, “measures” for “measures the”, “(Pantoliano et al., 2001).” for “[59].”, “25° C.” for “25”, “using” for “using the”

hPPARγ-LBD [5] = molecular target: T2, hPPARγ-LBD; assay: Fluorescence anisotropy titrations of fluorescein-labelled coactivator/corepressor peptides with hPPARγ-LBD in presence of ligand
Text: Next, we used fluorescence anisotropy (FA) to characterize the interaction between hPPARγ-LBD and its natural partner proteins upon CoA binding. We measured the dissociation constant (Kd) between hPPARγ-LBD and fluorescein-labeled peptides derived from a coactivator protein (PGC1) and two corepressor proteins (NCoR and SMRT). […] If an increasing molar excess of the ligand has an increasing influence on the Kd of the fluorescently labeled coactivator/corepressor, then we can infer ligand binding, because the ligand disturbs binding to coactivators or corepressors.
Binding affinities of the fluorescent peptides for hPPARγ LBD were measured in the presence or absence of ligands using a Safire2 microplate reader (TECAN). For the fluorescence-labeled peptides, excitation wavelength was set at 470 nm and emission measured at 530 nm. The reported data are the average of independent experiments and error bars correspond to standard deviations. The buffer solution for assays was 20 mM Tris-HCl pH 7.5, 150 mM NaCl, 1 mM EDTA, 5 mM dithiothreitol, and 10% (v/v) glycerol. The measurements were initiated at 40 μM of the protein, and then the sample was diluted successively by a factor of 2 with the buffer until the lowest protein concentration reached 9.7 nM. Fluorescent peptides were added to the protein samples at 4 nM, allowing establishment of the titration curve. Ligands, when added, were at final concentration of 80 μM.
Binding affinities of the fluorescent peptides for hPPARγ LBD were measured in the presence or absence of ligands using a Safire2 microplate reader (TECAN). Fluorescent-labeled peptides were measured using an excitation wavelength of 470 nm; emission was measured at 530 nm. Data are the average of independent experiments and error bars correspond to standard deviations. The buffer solution for assays consisted of 20 mM Tris-HCl pH 7.5, 150 mM NaCl, 1 mM EDTA, 5 mM dithiothreitol, and 10% (v/v) glycerol. Measurements began at 40 μM of the protein, followed by successive two-fold sample dilutions with buffer, until reaching the lowest protein concentration (9.7 nM). Fluorescent peptides were added to the protein samples at 4 nM to allow the establishment of the titration curve. Added ligands were at a final concentration of 80 μM.

[6] = molecular target: T3, chimeric human Bcl-2 (with the internal loop 51-91 removed and residues 35-50 replaced by residues 33-48 of … (human; mouse, UniProt P10415 1-34; Q64373 33-48; P10415 92-207); assay: fluorescence anisotropy (FA), same experiment as FIG. 5(a), rounded
T3 construct: also called recombinant Bcl-2; Bc1-2
T3 sequence (P10415 other isoform, or with tags, fused parts or gaps mutant limits assumed): as the sequence (P10415 with tags, fused parts or gaps with the stated changes) above

[7] = molecular target: T3, chimeric human Bcl-2 (with the internal …); assay: fluorescence anisotropy of labeled Bax-BH3 against Bcl-2 concentration, single binding site model
[8] = molecular target: T3, chimeric human Bcl-2 (with the internal …); assay: DSLS, aggregation temperature of 0.5 mg/mL Bcl-2 with 400 nM peptide (apo Bcl-2 56.85 ± 0.14)
[9] = molecular target: T3, chimeric human Bcl-2 (with the internal …); assay: differential static light scattering (DSLS), aggregation temperature of 0.5 mg/ml Bcl-2
[10] = molecular target: T3, chimeric human Bcl-2 (with the internal …); assay: DSLS, aggregation temperature of 0.5 mg/mL Bcl-2 with 1 uM peptide (apo Bcl-2 56.85 ± 0.14); negative control

CC(C)(COP(=O)(O)OP(=O)(O)OC[C@H]1O[C@@H](n2cnc3c(N)ncnc32)[C@H](O)[C@@H]1OP(=O)(O)O)[C@@H](O)C(=O)NCCC(=O)NCCS [Coenzyme A]
Tagg of Bcl-2 (Bcl-2 [1]; 0.5 mg/mL Bcl-2, 0.1 mM ligand): 57.65 ± 0.19 °C | Tagg of Bcl-2 (Bcl-2 [1]; 0.5 mg/mL Bcl-2, 0.25 mM ligand): 59.72 ± 1.011 °C | Tagg of Bcl-2 (Bcl-2 [1]; 0.5 mg/mL Bcl-2, 0.5 mM ligand): 59.83 ± 0.21 °C | Tagg of Bcl-2 (Bcl-2 [1]; 0.5 mg/mL Bcl-2, 0.75 mM ligand): 60.49 ± 0.46 °C | Tagg of Bcl-2 (Bcl-2 [1]; 0.5 mg/mL Bcl-2, 1 mM ligand): 60.88 ± 0.46 °C | Tagg of Bcl-2 (Bcl-2 [1]; 0.5 mg/mL Bcl-2, 1.5 mM ligand): 61.12 ± 0.58 °C | Tagg of Bcl-2 (Bcl-2 [1]; 0.5 mg/mL Bcl-2, 2 mM ligand): 61.25 ± 0.66 °C | Tagg of Bcl-2 (Bcl-2 [1]; 0.5 mg/mL Bcl-2, 3 mM ligand): 61.78 ± 0.45 °C | Tagg of Bcl-2 reached with increasing ligand concentrations (Bcl-2 [1]; 0.5 mg/ml Bcl-2, increasing concentrations of CoA): up to 62 °C | Kd (Bcl-2 [1]; DSLS thermal stability of Bcl-2, read-out: Kd from ΔTagg versus concentration, single binding site model): 320 ± 130 µM | Kd (Bcl-2 [2]; 10 μM Bcl-2, increasing CoA concentrations, read-out: Kd from tryptophan fluorescence quenching, single binding site model): 380 µM | Kd (Bcl-2 [2]; summary value in discussion, read-out: Kd for recombinant Bcl-2 in vitro): ~350 µM | displacement of Bax-BH3 from Bcl-2 (fluorescence anisotropy/polarization) (Bcl-2 [3]): did not reduce the FA; also recorded: without displacing Bax-BH3; also recorded: unable to displace | Tm of hPPARγ-LBD (hPPARγ-LBD [4]; 35 μM ligand): 46.6 °C | Tm of hPPARγ-LBD (hPPARγ-LBD [4]; 70 μM ligand): 46.5 °C | Tm of hPPARγ-LBD (hPPARγ-LBD [4]; 140 μM ligand): 45.5 °C | Tm of hPPARγ-LBD (hPPARγ-LBD [4]; 280 μM ligand): 41.7 °C | Tm of hPPARγ-LBD (hPPARγ-LBD [4]; 1400 μM ligand): 27.5 °C | lowering of hPPARγ-LBD Tm compared to the apo-protein (hPPARγ-LBD [4]; seven molar excess of ligand): 0.8 °C | Kd (hPPARγ-LBD [5]): < 500 µM | nature of the ligand-hPPARγ-LBD interaction (hPPARγ-LBD [5]; inferred from effect on coactivator and corepressor binding): neutral antagonist | effect on affinity of hPPARγ-LBD for corepressors NCoR and SMRT (hPPARγ-LBD [5]; two to ten molar excess): lowered the affinity | effect on affinity of hPPARγ-LBD for the coactivator PGC1 (hPPARγ-LBD [5]; two to ten molar excess (CD5577: two molar excess)): lowered the affinity

QDASTKKLSECLRRIGDELDSNMELQRMIAD [Bax-BH3 peptide, reference compound]
Tagg of Bcl-2 (Bcl-2 [1]; 0.5 mg/mL Bcl-2, 400 nM ligand): 67.30 ± 1.02 °C | Tagg of Bcl-2 (Bcl-2 [1]; 0.5 mg/mL Bcl-2, 400 nM ligand, listed as Bax-BH3): 67 °C

LSDAMETSSLRDALE [scrambled LD4 peptide, scrambled version of the Bcl-2 ligand LD4, negative control, reference compound]
effect on Tagg of Bcl-2 (Bcl-2 [1]; 0.5 mg/ml Bcl-2, 1 μM peptide (negative control)): did not alter Tagg

B1: fluorescence-labeled peptide QDASTKKLSECLRRIGDELDSNMELQRMIAD corresponding to Bax-BH3 (peptide)
peptide: QDASTKKLSECLRRIGDELDSNMELQRMIAD
modifications: also: fluorescein label, position not given here
notes: Bought from Genscript; also called Bax-BH3 peptide
Kd [6]: 0.128 µM | Kd [7]: ~0.128 µM | Tagg (° C.) [8]: 67.3 ° C.

B2: scrambled LD4 peptide (LSDAMETSSLRDALE, a scrambled version of the Bcl-2 ligand LD4) (peptide)
peptide: LSDAMETSSLRDALE
notes: Negative control peptide, bought from Genscript; also called Scramble LD4 peptide
binding result [9]: no binding (tested: 1 µM) | Tagg (° C.) [10]: 57 ° C.
